The values that follow come from article PMC11964921 (npj Drug Discovery, 2025).

In test [1] the test system is M. tuberculosis H37Rv-ΔcydAB. Kind of test: microbe, parasite or virus in culture. The class given is cell-based. Particulars: Mycobacterium tuberculosis; for MIC50: 120 h.
The subject of test [2] is isolated membranes from M. smegmatis. Particulars: cited from earlier work.
Test [3] concerns isolated membranes from M. tuberculosis. Particulars: cited from earlier work.
For test [4], the system named is whole cell M. smegmatis. Particulars: cited from earlier work.
Test [5] concerns cytochrome bd knockout strain of M. smegmatis. Particulars: cited from earlier work.
Test [6] relates to M. tuberculosis H37Rv-ΔcydAB. The arrangement: species or system mouse (Balb/cBy). Particulars: mouse, in vivo, 25 mg/kg.
The test system of test [7] is M. tuberculosis H37Rv Pasteur. Put plainly: MIC determination, agar dilution method. The class given is cell-based.
Test [8] has as its system M. tuberculosis Erdman. Put plainly: MIC determination, agar dilution method. The class given is cell-based. In general terms: Agar dilution tests growth on a series of plates holding different concentrations.
For test [9], the system named is membranes from M. smegmatis wild-type strain MC2155. The format is biochemical. Particulars: read-out: IC50 oxygen consumption.
Test [10] has as its system membranes from M. smegmatis cytochrome bd knockout strain (ΔcydAB). The format is biochemical. Particulars: read-out: IC50 oxygen consumption.
Test [11] relates to membranes from M. smegmatis cytochrome bc knockout strain (ΔqcrCAB). The class given is biochemical.

≈ marks a conversion by molar mass, not a printed value. Like-named read-outs stand apart in the source and are kept apart here.

On to `CCc1nc2ccc(Cl)cn2c1C(=O)NCc1ccc(N2CCC(c3ccc(OC(F)(F)F)cc3)CC2)cc1` [Q203], for which the MIC in test [1] is roughly 2 nM (≈ 1.11 ng/mL); in test [4], greater than 50000 nM; in test [5] it was ~ 2.5 μM. The MIC50 in test [1] is 2 ± 0.1 nM (≈ 1.11 ng/mL). Besides, the IC50 in [2] and in [3] was roughly 20 nM in each case.
Take `COc1nc2ccc(Br)cc2cc1[C@@H](c1ccccc1)[C@@](O)(CCN(C)C)c1cccc2ccccc12` [bedaquiline, reference compound]: the “reduction in bacterial load (lungs)” value in [6] is 4.6 log.
With `CCc1nc2ccc(Cl)cn2c1C(=O)NCc1ccc(C2CC3(C2)CN(S(=O)(=O)C(F)(F)F)C3)cc1` [JNJ-2901], the MIC is greater than 16 nM in [7] (Mycobacterium tuberculosis, H37Rv reference strain, read-out: MIC); greater than 8 ng/mL in test [7] (Mycobacterium tuberculosis, strain H37Rv Pasteur, <1% of inoculum able to grow, read-out: MIC); greater than 8 ng/mL in [7] (strain H37Rv Pasteur, <1% of inoculum able to grow); greater than 16 nM in test [8] (Mycobacterium tuberculosis, Erdman reference strain, read-out: MIC); greater than 8 ng/mL in [8] (Mycobacterium tuberculosis, strain Erdman, read-out: MIC); greater than 8 ng/mL in test [8] (strain Erdman). The same compound came in with an MIC50 in test [1] of 2.5 ± 0.1 nM (≈ 1.35 ng/mL). For the same compound, the 50% inhibitory concentration (IC50) (in general, the concentration that inhibits the measured activity by half) in test [9] turned out to be 89 ± 54 nM; in test [10], 60 ± 26 nM. Further, the “reduction of activity (oxygen consumption)” value in [11] amounted to 20%.
